The source of these data is patent publication US10696688B2, “Fused pyrimidines as isoform selective phosphoinositide-3-kinase-alpha inhibitors and process for preparation thereof” (Council of Scientific and Industrial Research, priority 2015, dated 2020).

Series [1] deals with Ehrlich ascites carcinoma (EAC) cells. The series can be described thus: In-vivo activity in Ehrlich solid tumor model. Further details: species or system swiss mice. As to conditions: 22 at 25 mg/kg i.p., 5-fluorouracil at 22 mg/kg i.p., day 1-9.
The conditions of series [2]: dead/total animals; 22 at 25 mg/kg i.p., 5-fluorouracil at 22 mg/kg i.p., day 1-9.

`O=c1[nH]cc(F)c(=O)[nH]1` [5-Fluorouracil, reference compound]: the “Day 13 % Tumor Growth Inhibition” value in series [1] (day 13, versus saline control) came to 50.04%. The “Day 13 Avg. tumor weights” value in series [1] (day 13) worked out at 929.42 mg. Further, the Mortality in series [2] is recorded as 0/7.
